Earlier results, collected in patent publication US4897502A, “Process for making solid polyhalotriaryl phosphate esters” (priority 1987, dated 1990).

Conditions: 100 g ethanol, 0° C.

| Compound | magnesium chloride dissolving in 100 g ethanol [g] |
| --- | --- |
| [Cl-].[Cl-].[Mg+2] [magnesium chloride] | 3.61 |

Same assay, conditions: 100 g methanol, 0° C.

| Compound | magnesium chloride dissolving in 100 g methanol [g] |
| --- | --- |
| [Cl-].[Cl-].[Mg+2] [magnesium chloride] | 15.5 |

Conditions: Table I

| Compound | Hansen Dispersion Component [SI] | Hildebrand Solubility Parameter [SI] |
| --- | --- | --- |
| CCCCCCCCO [Example 1-octanol, 1-octanol] | 15.2 | 21.1 |
| amyl alcohol [amyl alcohol (pract.)] | 14.5 |  |
| CCCCCO [Example 1-pentanol, 1-pentanol] | 14.4 |  |
| CCCCC(O)CC (centres unmarked) [Example 3-heptanol, 3-heptanol] | 14.6 | 20.2 |
| CCC(C)O (centres unmarked) [Example 2-butanol, 2-butanol] | 14.5 | 22.7 |
| CCCCCC(C)O (centres unmarked) [Example 2-heptanol, 2-heptanol] | 14.6 |  |
| CCCCCCO [Example 1-hexanol, 1-hexanol] | 15.0 |  |
| CCCCC(CC)CO (centres unmarked) [2-ethylhexanol] |  | 20.8 |
| CCCCCCCCCCO [Example 1-decanol, 1-decanol] | 15.4 | 20.5 |
| CCCCCCCO [Example 1-heptanol, 1-heptanol] | 15.1 |  |
| CCCC(C)O (centres unmarked) [Example 2-pentanol, 2-pentanol] | 15.0 | 22.2 |

Same assay, conditions: comparison liquids

| Compound | Hansen Dispersion Component |
| --- | --- |
| CO [methanol] | 7.4 |
| CC(C)O [Example 2-propanol, 2-propanol] | 7.6 |
